In ChEMBL document CHEMBL1201862, “PubChem BioAssay data set” (2004):
Active and inactive are the calls of the source.

How the values were obtained:
[1] = target: T1, Estrogen receptor beta (Homo sapiens, UniProt Q92731); experiment: ERβ–SRC-3 coactivator interaction inhibitors, confirmation, orthogonal assay, biochemical, ELISA, streptavidin-HRP readout (AID 1060)
[2] = target: T1, Estrogen receptor beta
[3] = target: T2, Aspartyl aminopeptidase (Plasmodium falciparum 3D7, UniProt Q8I2J3); experiment: Counterscreen for inhibitors of M1 and M17 aminopeptidases: QFRET-based biochemical high throughput dose response assay for inhibitors of the Plasmodium falciparum M18 Aspartyl Aminopeptidase (PFM18AAP). [Related PubChem assays: 1619 (Screening assay (M17LAP inhibitors).), 1445 (Screening assay (M1AAP inhibitors).)]
T2 sequence (Q8I2J3 whole entry): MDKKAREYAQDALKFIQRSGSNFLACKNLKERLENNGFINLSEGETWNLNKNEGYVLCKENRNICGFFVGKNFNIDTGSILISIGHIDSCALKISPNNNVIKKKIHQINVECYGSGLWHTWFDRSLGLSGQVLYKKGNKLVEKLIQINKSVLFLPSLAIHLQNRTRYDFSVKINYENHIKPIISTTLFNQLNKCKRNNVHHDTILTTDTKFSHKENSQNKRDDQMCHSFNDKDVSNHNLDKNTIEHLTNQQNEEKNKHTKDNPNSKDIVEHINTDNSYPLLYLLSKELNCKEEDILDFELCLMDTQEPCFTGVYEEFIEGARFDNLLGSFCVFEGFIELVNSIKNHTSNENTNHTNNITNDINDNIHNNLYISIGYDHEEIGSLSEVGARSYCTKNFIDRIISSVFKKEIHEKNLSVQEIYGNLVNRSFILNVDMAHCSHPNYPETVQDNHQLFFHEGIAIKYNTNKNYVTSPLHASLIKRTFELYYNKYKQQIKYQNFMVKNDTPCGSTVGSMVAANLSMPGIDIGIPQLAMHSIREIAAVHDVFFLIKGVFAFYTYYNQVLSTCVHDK

[4] = target: Procathepsin L (Homo sapiens, UniProt P07711); experiment: cathepsin L inhibitors, dose response, counter-screen for M1/M17 aminopeptidase inhibitor project, biochemical, QFRET, 1536-well (AID 2214)
[5] = target: T3, Leucine aminopeptidase (Plasmodium falciparum 3D7, UniProt Q8IL11); experiment: P. falciparum M17LAP inhibitors, primary screen, biochemical, fluorogenic H-Leu-NHMec substrate, 1536-well (AID 1619); format: functional
T3 sequence (Q8IL11 whole entry): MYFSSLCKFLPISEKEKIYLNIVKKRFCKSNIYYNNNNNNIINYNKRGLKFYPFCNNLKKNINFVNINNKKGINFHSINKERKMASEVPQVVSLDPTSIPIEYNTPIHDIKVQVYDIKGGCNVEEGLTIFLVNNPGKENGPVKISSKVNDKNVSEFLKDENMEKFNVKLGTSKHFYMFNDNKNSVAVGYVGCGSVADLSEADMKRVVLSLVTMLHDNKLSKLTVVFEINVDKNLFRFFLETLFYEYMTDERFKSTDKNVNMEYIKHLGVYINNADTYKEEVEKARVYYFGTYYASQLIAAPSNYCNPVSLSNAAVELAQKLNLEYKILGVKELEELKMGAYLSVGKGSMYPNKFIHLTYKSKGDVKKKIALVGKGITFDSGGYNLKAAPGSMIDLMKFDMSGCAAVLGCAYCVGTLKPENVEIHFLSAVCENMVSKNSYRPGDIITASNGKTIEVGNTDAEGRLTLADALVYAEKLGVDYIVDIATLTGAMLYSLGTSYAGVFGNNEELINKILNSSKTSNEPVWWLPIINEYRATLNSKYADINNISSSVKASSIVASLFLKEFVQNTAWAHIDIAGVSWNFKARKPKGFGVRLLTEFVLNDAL

[6] = target: Peroxisome proliferator-activated receptor gamma/Nuclear receptor coactivator 3 (Homo sapiens, UniProt P37231); format: functional;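 further: agonist potency for raising coactivator recruitment to the receptor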
[7] = target: Heat shock protein HSP 90-alpha (Homo sapiens, UniProt P07900); format: functional, organism-based
[8] = target: Peroxisome proliferator-activated receptor gamma/Nuclear receptor coactivator 1 (Homo sapiens, UniProt P37231); format: functional;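 further: agonist potency as compounds enhance coactivator SRC-1 recruitment to PPARgamma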
[9] = target: Peroxisome proliferator-activated receptor gamma/Nuclear receptor coactivator 2 (Homo sapiens, UniProt P37231); format: functional;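 further: agonist potency for raising coactivator recruitment to the receptor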
[10] = target: Glyceraldehyde-3-phosphate dehydrogenase (Homo sapiens, UniProt P04406)
[11] = target: T4, Bcl-2-related protein A1 (Mus musculus, UniProt Q07440); experiment: Bfl-1 binding inhibitors, SAR follow-up, biochemical, fluorescence polarization (AID 1070)
T4 sequence (Q07440 whole entry): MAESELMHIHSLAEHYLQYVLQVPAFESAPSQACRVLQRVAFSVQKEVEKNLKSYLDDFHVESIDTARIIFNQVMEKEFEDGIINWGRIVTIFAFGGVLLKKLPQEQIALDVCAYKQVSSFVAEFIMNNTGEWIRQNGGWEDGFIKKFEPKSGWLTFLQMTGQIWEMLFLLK

[12] = target: T4, Bcl-2-related protein A1; experiment: Bfl-1 inhibitors blocking BH3 peptide binding, confirmation, biochemical, TR-FRET, mouse Bfl-1 (AID 621);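 further: TR-FRET binding of GST-Bfl-1 to FITC-labelled Bid peptide via terbium antibody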
[13] = Luminescent dose response cell-based high throughput screening assay for inhibitors of the Janus kinase 2 mutant JAK2V617F. [Related pubchem assays: 1446 (Primary screen.), 1521 (Confirmation assay.), 1486 (Counter screen.)]; format: functional
[14] = target: T5, Heat shock factor protein 1 (Mus musculus, UniProt P38532); experiment: inhibition of MG132-induced HSE-luciferase signal, confirmation, cell-based, NIH3T3, luminescence, dose retest (AID 2382); format: functional;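 further: NIH3T3 fibroblasts with HSF1-driven luciferase reporter stressed by proteasome inhibitor MG132; luminescence from HSF1-driven luciferase expression after 8 hours of MG132 stress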
T5 sequence (P38532 whole entry): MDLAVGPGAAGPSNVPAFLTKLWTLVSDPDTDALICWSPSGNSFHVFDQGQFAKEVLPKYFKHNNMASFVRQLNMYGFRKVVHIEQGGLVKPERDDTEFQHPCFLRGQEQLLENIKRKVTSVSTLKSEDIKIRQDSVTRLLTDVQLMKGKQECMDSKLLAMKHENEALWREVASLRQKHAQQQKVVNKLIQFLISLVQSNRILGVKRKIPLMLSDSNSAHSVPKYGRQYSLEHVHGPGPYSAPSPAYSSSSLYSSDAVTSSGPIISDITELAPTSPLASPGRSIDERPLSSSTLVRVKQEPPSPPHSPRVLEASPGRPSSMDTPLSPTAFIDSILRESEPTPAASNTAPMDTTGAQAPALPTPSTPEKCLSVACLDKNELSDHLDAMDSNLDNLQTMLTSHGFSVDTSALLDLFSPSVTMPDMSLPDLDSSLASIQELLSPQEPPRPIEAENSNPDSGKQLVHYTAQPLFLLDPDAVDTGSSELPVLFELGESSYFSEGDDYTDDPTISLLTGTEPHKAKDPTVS

[15] = target: T6, Cytochrome P450 2C19 (Homo sapiens, UniProt P33261); experiment: Cytochrome panel assay with activity outcomes. Panel member name: p450-cyp2c19 Compounds with AC50 equal or less than 10 uM are considered active; format: functional
[16] = Luminescence Cell-Based Dose Confirmation to Identify Activators of 5'UTR Stem-Loop Driven Alpha-Synuclein mRNA Translation in H4 Neuroglioblastoma Cells. [Related pubchem assays: 1829 (Project Summary), 1814 (Primary HTS)]; format: functional
[17] = Luminescence Cell-Based Dose Response to Identify Activators of Luciferase Translation or Activity in H4-C Neuroglioblastoma Cells. [Related pubchem assays: 1829 (Project Summary), 1814 (Primary HTS)]; format: functional
[18] = system: HeLa; experiment: HeLa cell cytotoxicity, dose response, cytotoxicity control for MITF activator project, CellTiter-Glo luminescence, cherry-pick samples (AID 540259); format: functional, cell-based; conditions: Homo sapiens
[19] = Luminescence Cell-Based Dose Response HTS to Identify Activators of Luciferase Translation or Activity in H4 […] Cells. [Related pubchem assays: 1829 (Project Summary), 1814 (Primary HTS)]; format: functional
[20] = system: A-375; experiment: MITF: Counter assay: A375 proliferation Measured in Cell-Based System Using Plate Reader - 2084-03_Inhibitor_Dose_DryPowder_Activity. [Related pubchem assays (depositor defined):AID488944]; format: functional; conditions: Homo sapiens
[21] = system: H4; experiment: Luminescence Cell-Based Dose Response HTS to Identify Activators of 5'UTR Stem-Loop Driven Prion Protein mRNA Translation in H4 Neuroglioblastoma Cells. [Related pubchem assays: 1829 (Project Summary), 1814 (Primary HTS)]; format: functional; conditions: Homo sapiens
[22] = Luminescence Cell-Based Dose Response to Identify Activators of 5'UTR Stem-Loop Driven Prion Protein mRNA Translation in H4-C Neuroglioblastoma Cells. [Related pubchem assays: 1829 (Project Summary), 1814 (Primary HTS)]; format: functional
[23] = system: A-375; experiment: A375 melanoma cell viability reduction, dose response, counter-screen for MITF modulator project, cherry-pick samples, set 2 (AID 540335); format: functional, cell-based; conditions: Homo sapiens
[24] = target: T6, Cytochrome P450 2C19; experiment: qHTS Assay for Inhibitors and Substrates of Cytochrome P450 2C19. [Related pubchem assays: 410 ]; format: ADME; conditions: read-out: Potency
[25] = target: Ubiquitin carboxyl-terminal hydrolase BAP1 (Homo sapiens, UniProt Q92560); experiment: BAP1 deubiquitinase inhibitors, dose response, biochemical (AID 714); format: functional
[26] = target: FAD-linked sulfhydryl oxidase ALR (Homo sapiens, UniProt P55789); experiment: inhibitors of human ALR sulfhydryl oxidase, dose response, biochemical, H2O2 detection, luminescence, cherry-pick (AID 493248)
[27] = target: Bcl-2-like protein 1 (Homo sapiens, UniProt Q07817); experiment: BCL-XL inhibitors, dose response, selectivity assay for MCL1 inhibitor project, biochemical, fluorescence polarization, 1536-well (AID 2218)
[28] = target: Induced myeloid leukemia cell differentiation protein Mcl-1 (Homo sapiens, UniProt Q07820); experiment: MCL1-BIM BH3 interaction inhibitors, dose response, biochemical, fluorescence polarization, BIM-BH3 peptide, 1536-well (AID 2217)
[29] = inhibitors of clade B AD8 Env fusion, dose response, cell-based, cherry-pick (AID 652062); format: functional;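 further: luciferase signal from cell-cell fusion driven by HIV-1 clade B AD8 Env; potency is for inhibitors of fusion seen as a drop in luminescence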
[30] = off-target signal loss in HeLa-CEM21 co-culture – HeLa F-luc CTL cells, cherry-picked, counter-screen for HIV-1 Env fusion inhibitor project, dose response (AID 652040); format: functional, cell-based;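 further: potency for signal decrease marking cytotoxic or nonspecific inhibition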
[31] = CEM21 lymphoblast cell cytotoxicity, dose response, cytotoxicity control for viral fusion inhibitor project, CellTiter-Glo luminescence, cherry-picked (AID 652042); format: functional, cell-based;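 further: potency for signal decrease meaning cytotoxicity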
[32] = ZM109 Env clade C HIV-1 fusion inhibitors, dose response, HeLa effector, CEM target cells, luciferase, cherry-pick (AID 652058); format: functional, cell-based
[33] = inhibitors of HIV Env-driven cell fusion, dose response, cherry-pick (AID 652057); format: functional, cell-based
[34] = target: T5, Heat shock factor protein 1; experiment: HSF1 potentiators in luciferase reporter cells, confirmation, cell-based, NIH3T3, luminescence, dose retest (AID 435004); format: functional;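 further: stress induced by proteasome inhibitor MG132 added 30 min after compound; luciferase reporter driven by HSF1 response element in NIH3T3 cells; actives raise luminescence as potentiators of the MG132 stress response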

T1 sequence (Q92731 whole entry): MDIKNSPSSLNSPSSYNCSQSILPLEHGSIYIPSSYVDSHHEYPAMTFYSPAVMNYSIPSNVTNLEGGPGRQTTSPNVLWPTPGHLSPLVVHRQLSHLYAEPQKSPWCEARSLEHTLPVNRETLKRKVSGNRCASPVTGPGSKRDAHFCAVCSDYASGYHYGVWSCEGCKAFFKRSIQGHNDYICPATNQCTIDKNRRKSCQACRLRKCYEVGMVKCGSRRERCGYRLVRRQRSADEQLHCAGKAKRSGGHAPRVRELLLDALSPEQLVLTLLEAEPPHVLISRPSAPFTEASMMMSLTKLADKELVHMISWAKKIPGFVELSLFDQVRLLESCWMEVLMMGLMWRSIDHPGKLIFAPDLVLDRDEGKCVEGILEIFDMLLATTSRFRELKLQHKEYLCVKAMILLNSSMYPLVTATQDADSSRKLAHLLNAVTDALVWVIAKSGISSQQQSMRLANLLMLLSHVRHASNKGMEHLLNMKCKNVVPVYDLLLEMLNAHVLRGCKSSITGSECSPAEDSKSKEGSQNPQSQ
T6 sequence (P33261 whole entry): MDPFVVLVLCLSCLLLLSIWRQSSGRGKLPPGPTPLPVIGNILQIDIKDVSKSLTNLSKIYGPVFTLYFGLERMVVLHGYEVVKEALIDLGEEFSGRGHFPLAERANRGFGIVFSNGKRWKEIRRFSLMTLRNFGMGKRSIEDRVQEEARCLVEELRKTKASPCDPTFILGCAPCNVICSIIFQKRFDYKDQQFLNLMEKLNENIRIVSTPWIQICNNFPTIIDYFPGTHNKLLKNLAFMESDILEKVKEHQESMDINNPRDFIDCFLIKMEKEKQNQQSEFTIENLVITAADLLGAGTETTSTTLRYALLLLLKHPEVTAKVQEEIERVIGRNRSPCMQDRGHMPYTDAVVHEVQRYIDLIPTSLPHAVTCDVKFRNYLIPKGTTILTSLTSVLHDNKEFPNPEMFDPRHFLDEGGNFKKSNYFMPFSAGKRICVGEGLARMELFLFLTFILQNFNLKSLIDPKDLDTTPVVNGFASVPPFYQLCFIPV
Peroxisome proliferator-activated receptor gamma/Nuclear receptor coactivator 1, sequence (P37231 whole entry): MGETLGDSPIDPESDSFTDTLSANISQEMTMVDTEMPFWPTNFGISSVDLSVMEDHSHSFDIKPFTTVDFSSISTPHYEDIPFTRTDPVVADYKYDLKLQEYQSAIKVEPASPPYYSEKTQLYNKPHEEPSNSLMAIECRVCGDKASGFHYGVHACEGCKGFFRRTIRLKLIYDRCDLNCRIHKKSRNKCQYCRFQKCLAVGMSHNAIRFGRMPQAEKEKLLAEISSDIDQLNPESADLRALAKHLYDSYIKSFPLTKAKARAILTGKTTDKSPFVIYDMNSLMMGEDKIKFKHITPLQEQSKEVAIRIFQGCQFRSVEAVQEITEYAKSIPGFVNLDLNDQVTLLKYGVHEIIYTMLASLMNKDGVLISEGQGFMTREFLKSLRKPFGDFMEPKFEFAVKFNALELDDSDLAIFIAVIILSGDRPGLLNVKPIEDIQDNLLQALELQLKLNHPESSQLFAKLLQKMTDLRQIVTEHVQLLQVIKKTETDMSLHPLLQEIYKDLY
Peroxisome proliferator-activated receptor gamma/Nuclear receptor coactivator 1, sequence (Q15788 whole entry, further chain): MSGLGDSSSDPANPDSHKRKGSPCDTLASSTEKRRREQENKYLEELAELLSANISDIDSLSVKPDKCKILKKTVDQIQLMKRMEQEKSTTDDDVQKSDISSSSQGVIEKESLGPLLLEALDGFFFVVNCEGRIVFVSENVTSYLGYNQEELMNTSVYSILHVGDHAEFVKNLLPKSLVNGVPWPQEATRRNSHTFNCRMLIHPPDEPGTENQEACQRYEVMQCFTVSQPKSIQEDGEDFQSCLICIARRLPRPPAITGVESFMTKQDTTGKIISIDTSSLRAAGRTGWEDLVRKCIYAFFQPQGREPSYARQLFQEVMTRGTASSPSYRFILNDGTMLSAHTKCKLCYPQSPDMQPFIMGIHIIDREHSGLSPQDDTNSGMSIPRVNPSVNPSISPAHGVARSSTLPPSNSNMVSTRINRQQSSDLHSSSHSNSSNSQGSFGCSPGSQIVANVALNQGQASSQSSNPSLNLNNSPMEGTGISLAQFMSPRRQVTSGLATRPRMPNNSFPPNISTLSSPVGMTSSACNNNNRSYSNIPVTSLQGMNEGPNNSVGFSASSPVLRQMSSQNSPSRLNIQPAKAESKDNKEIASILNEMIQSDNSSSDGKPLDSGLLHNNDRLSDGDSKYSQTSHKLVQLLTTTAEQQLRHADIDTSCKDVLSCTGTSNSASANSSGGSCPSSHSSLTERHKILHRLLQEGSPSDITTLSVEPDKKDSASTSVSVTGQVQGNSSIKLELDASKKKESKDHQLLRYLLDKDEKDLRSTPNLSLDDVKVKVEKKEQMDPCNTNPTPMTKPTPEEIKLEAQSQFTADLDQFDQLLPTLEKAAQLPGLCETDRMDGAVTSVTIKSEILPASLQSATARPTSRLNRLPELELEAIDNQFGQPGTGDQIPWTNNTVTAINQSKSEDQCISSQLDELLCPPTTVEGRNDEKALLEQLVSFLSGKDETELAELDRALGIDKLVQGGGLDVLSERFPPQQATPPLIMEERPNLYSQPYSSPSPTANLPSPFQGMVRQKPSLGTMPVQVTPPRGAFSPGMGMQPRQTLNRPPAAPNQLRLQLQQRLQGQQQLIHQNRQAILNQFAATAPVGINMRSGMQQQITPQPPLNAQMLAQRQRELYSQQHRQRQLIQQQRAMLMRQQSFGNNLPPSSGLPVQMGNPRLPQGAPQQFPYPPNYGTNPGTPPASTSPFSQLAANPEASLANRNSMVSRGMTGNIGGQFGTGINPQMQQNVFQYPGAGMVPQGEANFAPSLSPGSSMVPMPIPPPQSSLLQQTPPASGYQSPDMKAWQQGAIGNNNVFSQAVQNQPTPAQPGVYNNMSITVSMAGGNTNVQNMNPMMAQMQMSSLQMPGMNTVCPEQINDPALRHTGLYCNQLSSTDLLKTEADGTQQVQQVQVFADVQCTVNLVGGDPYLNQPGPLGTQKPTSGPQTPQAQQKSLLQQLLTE
Peroxisome proliferator-activated receptor gamma/Nuclear receptor coactivator 3, sequence (P37231 whole entry): as the sequence (P37231 whole entry) above
Peroxisome proliferator-activated receptor gamma/Nuclear receptor coactivator 3, sequence (Q9Y6Q9 whole entry, further chain): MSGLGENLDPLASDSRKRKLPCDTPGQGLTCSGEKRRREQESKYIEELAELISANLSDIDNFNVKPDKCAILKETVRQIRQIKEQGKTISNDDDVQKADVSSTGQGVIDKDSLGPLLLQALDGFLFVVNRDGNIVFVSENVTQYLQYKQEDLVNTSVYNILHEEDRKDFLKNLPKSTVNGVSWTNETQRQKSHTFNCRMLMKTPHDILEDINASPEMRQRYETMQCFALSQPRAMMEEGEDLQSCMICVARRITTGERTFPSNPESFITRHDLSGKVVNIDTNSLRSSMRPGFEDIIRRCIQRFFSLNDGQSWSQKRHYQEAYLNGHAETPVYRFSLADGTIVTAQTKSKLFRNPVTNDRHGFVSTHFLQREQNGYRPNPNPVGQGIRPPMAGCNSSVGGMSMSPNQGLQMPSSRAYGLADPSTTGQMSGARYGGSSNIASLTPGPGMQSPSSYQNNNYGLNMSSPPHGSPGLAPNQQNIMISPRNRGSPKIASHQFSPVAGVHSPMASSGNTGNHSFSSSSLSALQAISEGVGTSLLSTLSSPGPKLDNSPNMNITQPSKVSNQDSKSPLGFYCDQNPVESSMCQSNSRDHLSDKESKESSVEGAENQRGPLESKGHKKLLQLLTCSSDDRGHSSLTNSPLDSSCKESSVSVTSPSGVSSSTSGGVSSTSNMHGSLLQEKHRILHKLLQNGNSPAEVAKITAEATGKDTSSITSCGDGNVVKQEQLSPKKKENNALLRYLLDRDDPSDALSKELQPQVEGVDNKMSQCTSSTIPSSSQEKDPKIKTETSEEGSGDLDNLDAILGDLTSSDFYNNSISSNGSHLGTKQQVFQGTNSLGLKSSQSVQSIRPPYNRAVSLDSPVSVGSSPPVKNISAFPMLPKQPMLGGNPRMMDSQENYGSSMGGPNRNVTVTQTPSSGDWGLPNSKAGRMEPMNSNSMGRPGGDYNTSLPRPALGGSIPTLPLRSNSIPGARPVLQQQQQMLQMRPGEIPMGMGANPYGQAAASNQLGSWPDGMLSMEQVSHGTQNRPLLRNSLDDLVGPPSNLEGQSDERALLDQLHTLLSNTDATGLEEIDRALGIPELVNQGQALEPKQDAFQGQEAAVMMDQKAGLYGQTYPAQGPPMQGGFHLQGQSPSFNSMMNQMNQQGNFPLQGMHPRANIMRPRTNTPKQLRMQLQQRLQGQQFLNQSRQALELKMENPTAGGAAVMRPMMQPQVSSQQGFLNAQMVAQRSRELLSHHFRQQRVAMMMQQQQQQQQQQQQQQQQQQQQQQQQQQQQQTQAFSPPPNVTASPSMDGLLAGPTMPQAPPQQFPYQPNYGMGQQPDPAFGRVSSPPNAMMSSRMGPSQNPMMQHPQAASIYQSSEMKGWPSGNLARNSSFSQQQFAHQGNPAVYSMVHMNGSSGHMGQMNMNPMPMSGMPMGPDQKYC

With `N#Cc1ccsc1NC(=O)CSc1ncnc2ccccc12` the IC50 [1] was < 23 nM (not active) and the IC50 [2] was > 50 µM (not active).
In the case of `Cc1ccc(Nc2nnc(SC3CCOC3=O)s2)cc1` (stereo not drawn), the IC50 [3] is reported as > 73.5 µM (not active), the IC50 [4] is reported as > 59.6 µM (not active) and the IC50 [5] is reported as 1.94 µM (active).
For `C/C(=N\Nc1nc2ccccc2s1)c1ccc(Br)s1`, the EC50 [6] was > 79.4 µM (not active), the AC50 [7] was 3.85 µM (active) and the EC50 [8] was > 79.4 µM (not active). For the same compound, the EC50 [9] was > 79.4 µM (not active).
With `COc1ccccc1N1CCN(C2=C(Cl)C(=O)N(c3ccc(Cl)c(Cl)c3)C2=O)CC1` the IC50 [10] was > 100 µM (not active), the IC50 [11] was 9.57 µM (active) and the IC50 [12] was 6.25 µM (active).
With `CCC1CCc2c(sc(NC(=O)C3CC=CCC3C(=O)O)c2C#N)C1` (stereo not drawn) the IC50 [3] was > 73.5 µM (not active), the IC50 [4] was > 59.6 µM (not active) and the IC50 [5] was < 1 µM (active).
For `Nc1nc(N)c2nc(-c3ccccc3)c(N)nc2n1`, the IC50 [13] was 807 nM (active), the EC50 [14] was > 195 µM (not active) and the AC50 [15] was “inactive”.
In the case of `COc1ccc(/C=N/N=C2/SCC(=O)N2Cc2ccccc2)cc1`, the EC50 [16] is reported as 581 nM (active), the EC50 [17] is reported as 335 nM (active) and the AC50 [18] is reported as 164 µM (active). For the same compound, the EC50 [19] was < 100 nM (active), the AC50 [20] was > 35 µM (active) and the EC50 [21] was > 120 µM (not active). For the same compound, the EC50 [22] was 361 nM (active) and the AC50 [23] was > 35 µM (active).
In the case of `COc1cc([C@@H]2Oc3cc([C@H]4Oc5cc(O)cc(O)c5C(=O)[C@H]4O)ccc3O[C@H]2CO)ccc1O`, the AC50 [24] is reported as 15.8 µM (inconclusive).
With `O=C1C(Cl)=C(N2CCOCC2)C(=O)N1c1ccc(Cl)c(Cl)c1` the IC50 [10] was > 100 µM (not active), the IC50 [11] was 1.51 µM (active) and the IC50 [12] was 1.29 µM (active).
With `O=C(NCc1ccccc1)c1cnc2ccc(S(=O)(=O)Nc3ccc4c(c3)OCCO4)cc2c1O` the IC50 [25] was > 50 µM (not active).
With `CCc1nc(SCc2ccc(F)cc2)[nH]c(=O)c1C#N` the EC50 [6] was > 79.4 µM (not active), the AC50 [26] was 622 nM (active) and the EC50 [8] was > 79.4 µM (not active). The EC50 [9] was > 79.4 µM (not active).
With `CC1=CC(C)(C)Nc2cc(C)c(C)cc21` the IC50 [25] was > 50 µM (not active).
With `Cc1cc[n+](-c2[n-]c(=O)sc2/C=N/NC(=O)CCn2c3ccccc3c3ccccc32)cc1` the IC50 [27] was 27.6 µM (not active) and the IC50 [28] was 14.1 µM (not active).
For `O=C(Oc1ccc2c(c1)OCO2)c1cc2c(s1)CCC2`, the AC50 [29] was 7.2 µM (active), the IC50 [1] was < 23 nM (not active) and the IC50 [2] was < 1.56 µM (active). The AC50 [30] was 10.8 µM (active), the AC50 [31] was 2.01 µM (active) and the AC50 [32] was 3.31 µM (active). The AC50 [33] was 10.4 µM (active) and the EC50 [34] was > 260 µM (inactive).
For `CC(C)(C)/C(O)=C/c1nc2cc(Cl)ccc2oc1=O`, the IC50 [13] was 1700 nM (active).
With `CCCCCCC(=O)Cc1cc(OC)c(OC)cc1C=C(C(=O)OCC)C(=O)OCC` the AC50 [24] was 3.16 µM (inconclusive).
